{
  "source": "patent EP3909969A1",
  "about": "“PEPTIDE FOR HYDROGEL FORMATION” (Freie Universität Berlin, priority 2020, dated 2021)",
  "system": "NIH/3T3 embryonic mouse fibroblast cells",
  "experiment": "Cytotoxicity assay of hydrogel cultured cells by Cell Counting Kit-8 (CCK-8)",
  "format": "cell-based",
  "settings": "hydrogel at 0.3 wt%, after 24 h, NIH/3T3 cells",
  "method": "NIH/3T3 embryonic mouse fibroblast cells were cultured in DMEM culture medium (Lonza, 4,5 g/L glucose, 10 % FCS, 1 % penicillin/streptomycin) in a humidified incubator (5 % CO2, 37°C). The cells were grown in 175 cm^2 cell culture flaks and medium was changed thrice a week. Upon confluency of 70 % - 80 % the culture was subcultured according to the detected cell number.\nTo determine whether different peptide hydrogel compositions would be tolerated by the cells CCK-8 was used to conduct viability of cells during a 3 days cell culture. A suspension of NIH/3T3 cells in DMEM (4.5 g/L, 10 % FCS, 1 % penicillin/streptomycin) was seeded in a transparent 96-well plate with a density of 10.000 cells in an overall volume of 100 µL per well containing the respecting hydrogels. 10 µL of 1 % (w/v) SDS was added to the respective wells of positive control and the plate was further incubated for 24 h and 72 h at 37°C and 5 % CO2 respectively. After each time points 10 µL of CCK-8 solution were added to each well and allowed to incubate for 2 h in a humidified incubator at 37°C. During this time dehydrogenases in viable cells reduces WST-8 tetrazolium to formazan, which will be detected by measuring the absorbance at 450 nm. Absorbance was measured by using a Tecan Infinite 200 Pro microplate reader. Three experiments were performed in triplicates per hydrogel candidate (n=3). […]",
  "data": [
    {"smiles": "CC(C)C[C@H](NC(=O)[C@H](CCC(=O)O)NC(=O)[C@H](CCCCN)NC(=O)[C@H](CCCCN)NC(=O)[C@H](CC(C)C)NC(=O)[C@H](C)NC(=O)[C@H](C)NC(=O)[C@H](CC(C)C)NC(=O)[C@H](CCC(=O)O)NC(=O)[C@H](CCCCN)NC(=O)[C@H](CCCCN)NC(=O)[C@H](CC(C)C)NC(=O)[C@H](C)NC(=O)[C@H](C)NC(=O)[C@H](CC(C)C)NC(=O)[C@H](CCC(=O)O)NC(=O)[C@H](CCCCN)NC(=O)[C@H](CCCCN)NC(=O)[C@H](CC(C)C)NC(=O)[C@H](C)NC(=O)[C@H](C)NC(=O)[C@H](CC(C)C)NC(=O)[C@H](CCC(=O)O)NC(=O)[C@H](CCCCN)NC(=O)[C@H](CCCCN)NC(=O)[C@H](CC(C)C)NC(=O)c1ccccc1N)C(=O)O", "note": "[hFF03]", "values": [
      {"measurement": "viability compared to the control", "value": "higher than 160%"}
    ]}
  ]
}
